Where two headings read alike, the source gives them in different places.
Tests used:
GLP-1R = GLP-1R (Homo sapiens, UniProt P43220); experiment: GLP-1R activation: cAMP increase in CHO cells stably expressing GLP-1R; format: cell-based
[1] = Microsomal stability, human liver microsomes (predicted hepatic clearance); conditions: predicted from in vitro microsomal stability data
[2] = cAMP increase, CHO cells stably expressing GLP-1R, 10 point dose response, 30 minutes incubation, read-out: EC50

GLP-1R, sequence (P43220 24-463): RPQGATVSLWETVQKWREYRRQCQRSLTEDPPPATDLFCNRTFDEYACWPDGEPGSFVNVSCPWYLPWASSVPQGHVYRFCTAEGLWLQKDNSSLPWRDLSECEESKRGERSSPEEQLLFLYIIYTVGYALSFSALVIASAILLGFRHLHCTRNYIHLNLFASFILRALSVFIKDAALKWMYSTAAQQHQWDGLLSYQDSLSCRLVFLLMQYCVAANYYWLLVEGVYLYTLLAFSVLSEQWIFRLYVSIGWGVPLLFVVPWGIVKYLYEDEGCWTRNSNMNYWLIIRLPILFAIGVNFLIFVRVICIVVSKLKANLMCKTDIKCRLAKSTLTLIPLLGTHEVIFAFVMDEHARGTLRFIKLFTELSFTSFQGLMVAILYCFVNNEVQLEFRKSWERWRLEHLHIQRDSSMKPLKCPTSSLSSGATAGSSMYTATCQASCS

SMILES | EC50 (GLP-1R; [2]) | Predicted Hepatic Clearance (Pred. Cl.) [1] | EC50 (GLP-1R; EC50 (nM)) | EC50 (GLP-1R; read-out: EC50)
COCCn1c(Cc2cc(Cl)c(-c3cccc(OCc4ccc(C#N)cc4F)n3)cc2F)nc2ccc(C(=O)O)cc21 [Example 314, 2-(5-chloro-4-(6-((4-cyano-2-fluorobenzyl)oxy)pyridin-2-yl)-2-fluorobenzyl)-1-(2-methoxyethyl)-1H-benzo[d]imidazole-6-carboxylic acid] | 12.5 nM | 5 mL/min/kg | – | –
COCCn1c(Cc2ccc(-c3cccc(OCc4ccccc4SC)n3)cc2F)nc2ccc(C(=O)O)cc21 [Example 249, 2-(2-fluoro-4-(6-((2-(methylthio)benzyl)oxy)pyridin-2-yl)benzyl)-1-(2-methoxyethyl)-1H-benzo[d]imidazole-6-carboxylic acid] | 172 nM | 15.5 mL/min/kg | – | –
COCCn1c(Cc2cc(F)c(-c3cccc(OCc4ccc(C#N)nc4)n3)cc2F)nc2ccc(C(=O)O)cc21 [Example 820] | – | 2.67 mL/min/kg | 11.5 nM | –
COCCn1c(Cc2ccc(-c3cccc(OCc4ccc(C#N)cc4F)n3)cc2C#CC2CC(F)(F)C2)nc2ccc(C(=O)O)cc21 [Example 228, 2-(4-(6-((4-cyano-2-fluorobenzyl)oxy)pyridin-2-yl)-2-((3,3-difluorocyclobutyl)ethynyl)benzyl)-1-(2-methoxyethyl)-1H-benzo[d]imidazole-6-carboxylic acid] | 4.87 nM | 4.83 mL/min/kg | – | –
COCCn1c(Cc2ccc(-c3cccc(OCc4ccc(C#N)cc4F)n3)cc2)nc2ccc(C(=O)O)cc21 [Example 1, 2-(4-(6-((4-Cyano-2-fluorobenzyl)oxy)pyridin-2-yl)benzyl)-1-(2-methoxyethyl)-1H-benzo[d]imidazole-6-carboxylic acid] | 25.4 nM | 3.3 mL/min/kg | – | –
N#Cc1ccc(COc2cccc(-c3cc(F)c(Cc4nc5ccc(C(=O)O)cc5n4C4CCOCC4)cc3F)n2)c(F)c1 [Example 547, 2-(4-(6-((4-cyano-2-fluorobenzyl)oxy)pyridin-2-yl)-2,5-difluorobenzyl)-1-(tetrahydro-2H-pyran-4-yl)-1H-benzo[d]imidazole-carboxylic acid] | 3.43 nM | 7.33 mL/min/kg | – | –
CO[C@H]1CN(C(C)=O)C[C@H]1n1c(Cc2cc(F)c(-c3cccc(OCc4ccc(C#N)cc4F)n3)cc2F)nc2ccc(C(=O)O)cc21 [Example 918, 3-[(3R,4S)-1-acetyl-4-methoxy-pyrrolidin-3-yl]-2-[[4-[6-[(4-cyano-2-fluoro-phenyl)methoxy]-2-pyridyl]-2,5-difluoro-phenyl]methyl]benzimidazole-5-carboxylic acid] | – | 4.83 mL/min/kg | – | 24.9 nM
N#Cc1ccc(COc2ccc(F)c(-c3cc(F)c(Cc4nc5c(F)cc(C(=O)O)cc5n4CC45COC(C4)C5)cc3F)n2)c(F)c1 [Example 782] | 3.31 nM | 11.2 mL/min/kg | – | –
COCCn1c(Cc2cc(F)c(-c3cccc(OCc4ccc(C#N)cc4F)n3)cc2CO)nc2ccc(C(=O)O)cc21 [Example 753] | 0.74 nM | 10.3 mL/min/kg | – | –
CCn1nccc1Cn1c(Cc2ccc(-c3cccc(OCc4ccc(C#N)cc4F)n3)cc2F)nc2ccc(C(=O)O)cc21 [Example 524, 2-(4-(6-((4-cyano-2-fluorobenzyl)oxy)pyridin-2-yl)-2-fluorobenzyl)-1-((l-ethyl-1H-pyrazol-5-yl)methyl)-1H-benzo[d]imidazole-6-carboxylic acid] | 66.5 nM | 7.17 mL/min/kg | – | –
COCCn1c(Cc2cc(F)c(-c3ccnc(OCc4ccc(C#N)cc4OC)n3)cc2F)nc2ccc(C(=O)O)cc21 [Example 368, 2-(4-(2-((4-cyano-2-methoxybenzyl)oxy)pyrimidin-4-yl)-2,5-difluorobenzyl)-1-(2-methoxyethyl)-1H-benzo[d]imidazole-6-carboxylic acid] | 0.77 nM | <1.83 mL/min/kg | – | –
O=C(O)c1ccc2nc(Cc3c(F)cc(-c4cccc(OCc5ccc(C(F)F)cc5F)n4)c(F)c3F)n(Cc3ncco3)c2c1 [Example 749] | 0.33 nM | 4.33 mL/min/kg | – | –
COCCn1c(Cc2cc(F)c(-c3cccc(OCc4ccc(-n5cccn5)nc4)n3)cc2F)nc2ccc(C(=O)O)cc21 [Example 865] | 29.8 nM | 4.33 mL/min/kg | – | –
COCCn1c(Cc2cc(F)c(-c3cccc(OCc4ccc(F)cc4Cl)n3)cc2F)nc2ccc(C(=O)O)cc21 [Example 818] | 4.3 nM | 6 mL/min/kg | – | –
N#Cc1ccc(COc2cccc(-c3cc(F)c(Cc4nc5ccc(C(=O)O)cc5n4CCOc4ccccc4)cc3F)n2)c(F)c1 [Example 830] | 448 nM | 2.5 mL/min/kg | – | –
COCCn1c(Cc2cc(F)c(-c3cccc(OCc4cc(C)c(C(F)(F)F)cc4F)n3)cc2F)nc2ccc(C(=O)O)cc21 [Example 871] | 30.8 nM | 2 mL/min/kg | – | –
N#CCC1(Cn2c(Cc3cc(F)c(-c4nc(OCc5ccc(C#N)cc5F)ncc4F)cc3F)nc3ccc(C(=O)O)nc32)CC1 [Example 129, 2-(4-(2-((4-cyano-2-fluorobenzyl)oxy)-5-fluoropyrimidin-4-yl)-2,5-difluorobenzyl)-3-((1-(cyanomethyl)cyclopropyl)methyl)-3H-imidazo[4,5-b]pyridine-5-carboxylic acid] | 0.7 nM | 3.17 mL/min/kg | – | –
COCCn1c(Cc2ccc(-c3cccc(OCc4ccc(C#N)cc4F)n3)cc2C(F)(F)F)nc2ccc(C(=O)O)cc21 [Example 172, 2-(4-(6-((4-cyano-2-fluorobenzyl)oxy)pyridin-2-yl)-2-(trifluoromethyl)benzyl)-1-(2-methoxyethyl)-1H-benzo[d]imidazole-carboxylic acid] | 38 nM | 9.5 mL/min/kg | – | –
N#Cc1ccc(COc2cccc(-c3cc(F)c(Cc4nc5ccc(C(=O)O)cc5n4CC45COC(C4)C5)cc3F)n2)c(F)c1 [Example 624] | 1.68 nM | 5 mL/min/kg | – | –
CC(C)(Cn1c(Cc2ccc(-c3cccc(OCc4ccc(C#N)cc4F)n3)cc2F)nc2ccc(C(=O)NS(=O)(=O)C3CC3)cc21)C(F)F [Example 52, 2-(4-(6-((4-cyano-2-fluorobenzyl)oxy)pyridin-2-yl)-2-fluorobenzyl)-N-(cyclopropylsulfonyl)-1-(3,3-difluoro-2,2-dimethylpropyl)-1H-benzo[d]imidazole-6-carboxamide] | 56 nM | <1.83 mL/min/kg | – | –
N#CCC1(Cn2c(Cc3cc(F)c(-c4cccc(OCc5ccc(C#N)cc5F)n4)cc3F)nc3ccc(C(=O)O)cc32)CC1 [Example 428, 2-(4-(6-((4-cyano-2-fluorobenzyl)oxy)pyridin-2-yl)-2,5-difluorobenzyl)-1-((1-(cyanomethyl)cyclopropyl)methyl)-1H-benzo[d]imidazole-6-carboxylic acid] | 0.13 nM | 8.92 mL/min/kg | – | –
COCCn1c(Cc2cc(F)c(-c3ccc(F)c(NCc4ccc(C#N)cc4F)n3)cc2F)nc2ccc(C(=O)O)cc21 [Example 164, 2-(4-(6-((4-cyano-2-fluorobenzyl)amino)-5-fluoropyridin-2-yl)-2,5-difluorobenzyl)-1-(2-methoxyethyl)-1H-benzo[d]imidazole-6-carboxylic acid] | 32.9 nM | 6.7 mL/min/kg | – | –

Reference: US11702404B2, “GLP-1R modulating compounds” (priority 2019, dated 2023)
